Numbered stars: 1 amine (or outer) side, 2 acyl side, 3 side chain; on linkers, the order of the positions; unused ones are H or OH. Bridge positions count the residues as written; N and C are the ends. Square brackets hold non-standard residues; d marks the D form. Peptide text beside a SMILES is read from it. * marks the point of attachment. ξ: configuration not given here. X13 = O=C(O)CN1CCN(CC(=O)O)CCN(CC(=O)N2CCN(Cc3cc(C[*:1])cc(C[*:2])c3)CC2)CCN(CC(=O)O)CC1; X7 = O=C(CCP(=O)(O)CN1CCN(CP(=O)(O)CO)CCN(CP(=O)(O)CO)CC1)NCCSCc1cc(C[*:1])cc(C[*:2])c1; X32 = O=C(O)CN1CCN(CC(=O)O)CCN(CC(=O)NCc2cc(C[*:1])cc(C[*:2])c2)CCN(CC(=O)O)CC1; DOTA = O=C(O)CN1CCN(CC(=O)O)CCN(CC(=O)*)CCN(CC(=O)O)CC1; Phe(4-Cl) = N[C@@H](Cc1ccc(Cl)cc1)C(=O)O; mXylylene = c1cc(C[*:1])cc(C[*:2])c1; Hyp = O=C(O)[C@@H]1C[C@@H](O)CN1; NMeF = CN[C@@H](Cc1ccccc1)C(=O)O; Hexanoyl = CCCCCC(=O)*; ξC = NC(CS)C(=O)O; βAla = NCCC(=O)O
Columns and labels:
[1] = target: T1, FAP-expressing human WI-38 fibroblasts (Homo sapiens, UniProt Q12884); experiment: Competitive FACS binding assay
T1 construct: FAP-expressing human WI-38 fibroblasts (ECACC) were cultured in EMEM; host or cells: WI-38 human fibroblasts
T1 sequence (Q12884 whole entry): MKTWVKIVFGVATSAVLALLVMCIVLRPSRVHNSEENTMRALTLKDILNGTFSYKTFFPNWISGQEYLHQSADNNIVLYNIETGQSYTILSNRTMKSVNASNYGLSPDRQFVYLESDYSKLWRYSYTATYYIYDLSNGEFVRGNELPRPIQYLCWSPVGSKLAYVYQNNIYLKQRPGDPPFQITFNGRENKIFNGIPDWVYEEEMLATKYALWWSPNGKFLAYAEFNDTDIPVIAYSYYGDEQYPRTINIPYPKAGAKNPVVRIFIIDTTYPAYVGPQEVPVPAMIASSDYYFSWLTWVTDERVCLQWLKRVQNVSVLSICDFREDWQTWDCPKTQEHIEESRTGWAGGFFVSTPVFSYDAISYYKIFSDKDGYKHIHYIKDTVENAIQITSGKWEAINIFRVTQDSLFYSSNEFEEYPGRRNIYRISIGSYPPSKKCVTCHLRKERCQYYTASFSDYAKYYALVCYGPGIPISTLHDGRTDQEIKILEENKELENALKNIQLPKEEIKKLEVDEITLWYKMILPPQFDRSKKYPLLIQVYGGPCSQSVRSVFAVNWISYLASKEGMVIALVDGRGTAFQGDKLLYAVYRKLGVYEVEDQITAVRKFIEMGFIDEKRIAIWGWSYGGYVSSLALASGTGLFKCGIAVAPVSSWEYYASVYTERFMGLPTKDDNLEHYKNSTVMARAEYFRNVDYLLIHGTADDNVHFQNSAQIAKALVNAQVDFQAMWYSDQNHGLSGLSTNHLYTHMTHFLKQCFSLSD
Method: Cells were analyzed in an Attune NxT flow cytometer. […] […].
Cells were analyzed in an Attune NxT flow cytometer. […]

Human recombinant FAP = Human recombinant FAP (Homo sapiens, UniProt Q12884); experiment: FRET-based FAP protease activity assay; format: biochemical; set-up: purchased R&D systems 3715-SE
Chain of Human recombinant FAP (Q12884 whole entry): as above

[2] = pIC50 Category (Activity), FRET-based FAP protease activity assay, recombinant human FAP, 37° C.
[3] = pIC50 Category (Activity), FRET-peptide substrate, 37° C.
[4] = pIC50 Category (activity), Recombinant human FAP

Row | IC50 [1] | IC50 (Human recombinant FAP; [2]) | IC50 (Human recombinant FAP; [3]) | SMILES | pIC50 Category (FACS) ([1]; FAP-expressing human WI-38 fibroblasts) | IC50 (Human recombinant FAP; [4])
1 | 0.01 to 0.0794 µM | 0.01 to 0.0794 µM | – | CCCCCC(=O)N[C@H]1CSCc2cccc(c2)CSC[C@@H](C(N)=O)NC(=O)[C@H](Cc2ccccc2)NC(=O)[C@H](CCC(=O)O)NC(=O)[C@H]([C@@H](C)O)NC(=O)[C@@H]2C[C@@H](O)CN2C(=O)[C@@H]2CCCN2C1=O [3BP-3366, Hex-[Cys(3MeBn)-Pro-Hyp-Thr-Glu-Phe-Cys]-NH2] (Hexanoyl-CP[Hyp]TEFC-NH2; linker 1-7 via mXylylene) | – | –
2 | 0.1 to 0.794 µM | 0.1 to 0.794 µM | – | CCCCCC(=O)N[C@H]1CSCc2cccc(c2)CSC[C@@H](C(N)=O)NC(=O)[C@H](Cc2ccc(Cl)cc2)NC(=O)[C@H](CCC(=O)O)NC(=O)[C@H]([C@@H](C)O)NC(=O)[C@@H]2CCCN2C(=O)[C@@H]2CCCN2C1=O [3BP-3369, Hex-[Cys(3MeBn)-Pro-Pro-Thr-Glu-Pcf-Cys]-NH2] (Hexanoyl-CPPTE[Phe(4-Cl)]C-NH2; linker 1-7 via mXylylene) | – | –
3 | > 1 µM | > 1 µM | – | C[C@@H](O)[C@@H]1NC(=O)[C@@H]2CCCN2C(=O)[C@@H]2CCCN2C(=O)[C@@H](NC(=O)CCCS(N)(=O)=O)CSCc2cccc(c2)CSC[C@@H](C(N)=O)NC(=O)[C@H](Cc2ccccc2)NC(=O)[C@H](CCC(N)=O)NC1=O [3BP-3860, H2NSO2-But-[Cys(3MeBn)-Pro-Pro-Thr-Gln-Phe-Cys]-NH2] | – | –
4 | 0.01 to 0.0794 µM | 0.01 to 0.0794 µM | – | CCCCCC(=O)N[C@H]1CSCc2cc(CNC(=O)CN3CCN(CC(=O)O)CCN(CC(=O)O)CCN(CC(=O)O)CC3)cc(c2)CSC[C@@H](C(=O)N[C@@H](CC(=O)O)C(N)=O)NC(=O)[C@H](Cc2ccccc2)NC(=O)[C@H](CCC(N)=O)NC(=O)[C@H]([C@@H](C)O)NC(=O)[C@@H]2CCCN2C(=O)[C@@H]2CCCN2C1=O [3BP-3556, Hex-[Cys(tMeBn(DOTA-NH))-Pro-Pro-Thr-Gln-Phe-Cys]-Asp-NH2] (Hexanoyl-CPPTQFCD-NH2; linker 1-7 via X32) | – | –
5 | > 1 µM | 0.1 to 0.794 µM | – | CC(=O)N[C@@H](CCO)C(=O)N[C@H]1CSCc2cccc(c2)CSC[C@@H](C(N)=O)NC(=O)[C@H](Cc2ccccc2)NC(=O)[C@H](CCC(N)=O)NC(=O)[C@H]([C@@H](C)O)NC(=O)[C@@H]2CCCN2C(=O)[C@@H]2CCCN2C1=O [3BP-3763, Ac-Hse-[Cys(3MeBn)-Pro-Pro-Thr-Gln-Phe-Cys]-NH2] | – | –
6 | 0.01 to 0.0794 µM | – | 0.01 to 0.0794 µM | C=CCOC(=O)N[C@H]1CSCc2cc(CSCCNC(=O)CN3CCN(CC(=O)O)CCN(CC(=O)O)CCN(CC(=O)O)CC3)cc(c2)CSC[C@@H](C(=O)O)NC(=O)[C@H](Cc2ccccc2)NC(=O)[C@H](CCC(N)=O)NC(=O)[C@H]([C@@H](C)O)NC(=O)[C@@H]2CCCN2C(=O)[C@@H]2CCCN2C1=O [3BP-3915, Alloc-[Cys(tMeBn(DOTA-AET))-Pro-Pro-Thr-Gln-Phe-Cys]-OH] | – | –
7 | 0.01 to 0.0794 µM | 0.01 to 0.0794 µM | – | C[C@@H](O)[C@@H]1NC(=O)[C@@H]2CCCN2C(=O)[C@@H]2CCCN2C(=O)[C@@H](NC(=O)CCNC(=O)CN2CCN(CC(=O)O)CCN(CC(=O)O)CCN(CC(=O)O)CC2)CSCc2cccc(c2)CSC[C@@H](C(=O)N[C@@H](CC(=O)O)C(=O)N[C@@H](Cc2c[nH]cn2)C(=O)N(C)[C@@H](Cc2ccccc2)C(=O)N[C@@H](CCCNC(=N)N)C(=O)N[C@@H](CC(=O)O)C(N)=O)NC(=O)[C@H](Cc2ccccc2)NC(=O)[C@H](CCC(=O)O)NC1=O [3BP-3264, DOTA-Bal-[Cys(3MeBn)-Pro-Pro-Thr-Glu-Phe-Cys]-Asp-His-Nmf-Arg-Asp-NH2] ({DOTA-βAla}-CPPTEFCDH[NMeF]RD-NH2; linker 1-7 via mXylylene) | – | –
8 | 0.1 to 0.794 µM | – | 0.1 to 0.794 µM | C[C@@H](O)[C@@H]1NC(=O)[C@@H]2CCCN2C(=O)[C@@H]2CCCN2C(=O)[C@@H](NC(=O)C2CCOC2)CSCc2cc(CSCCNC(=O)CN3CCN(CC(=O)O)CCN(CC(=O)O)CCN(CC(=O)O)CC3)cc(c2)CSC[C@@H](C(=O)O)NC(=O)[C@H](Cc2ccccc2)NC(=O)[C@H](CCC(N)=O)NC1=O (stereo partly drawn) [3BP-3919, Fur-[Cys(tMeBn(DOTA-AET))-Pro-Pro-Thr-Gln-Phe-Cys]-OH] | – | –
9 | < 0.01 µM | < 0.01 µM | – | CCCCCC(=O)N[C@H]1CSCc2cccc(c2)CSC[C@@H](C(=O)N[C@@H](CC(=O)O)C(=O)N[C@@H](CCCNC(=N)N)C(N)=O)NC(=O)[C@H](Cc2ccccc2)NC(=O)[C@H](CCC(=O)O)NC(=O)[C@H]([C@@H](C)O)NC(=O)[C@@H]2CCCN2C(=O)[C@@H]2CCCN2C1=O [3BP-3299, Hex-[Cys(3MeBn)-Pro-Pro-Thr-Glu-Phe-Cys]-Asp-Arg-NH2] (Hexanoyl-CPPTEFCDR-NH2; linker 1-7 via mXylylene) | – | –

Row | SMILES | IC50 [1] | IC50 (Human recombinant FAP; [2]) | IC50 (Human recombinant FAP; [3]) | pIC50 Category (FACS) ([1]; FAP-expressing human WI-38 fibroblasts) | IC50 (Human recombinant FAP; [4])
10 | CCCCCC(=O)N[C@H]1CSCc2cc(cc(CN3CCN(C(=O)CN4CCN(CC(=O)O)CCN(CC(=O)O)CCN(CC(=O)O)CC4)CC3)c2)CSC[C@@H](C(=O)N[C@@H](CC(=O)O)C(N)=O)NC(=O)[C@H]([C@@H](C)O)NC(=O)[C@@H]2CCCN2C(=O)[C@H](Cc2ccccc2)NC(=O)[C@H](CCC(N)=O)NC(=O)[C@@H]2CCCN2C1=O [3BP-3857, Hex-[Cys(tMeBn(DOTA-PP))-Pro-Gln-Phe-Pro-Thr-Cys]-Asp-NH2] (Hexanoyl-CPQFPTCD-NH2; linker 1-7 via X13) | 0.1 to 0.794 µM | 0.1 to 0.794 µM | – | – | –
11 | CCCCCC(=O)N[C@H]1CSCc2cc(cc(CN3CCN(C(=O)CN4CCN(CC(=O)O)CCN(CC(=O)O)CCN(CC(=O)O)CC4)CC3)c2)CSC[C@@H](C(=O)N[C@@H](CC(=O)O)C(N)=O)NC(=O)[C@H](Cc2ccccc2)NC(=O)[C@H](C)NC(=O)[C@H](C)NC(=O)[C@@H]2CCCN2C(=O)[C@@H]2CCCN2C1=O [3BP-3746, Hex-[Cys(tMeBn(DOTA-PP))-Pro-Pro-Ala-Ala-Phe-Cys]-Asp-NH2] (Hexanoyl-CPPAAFCD-NH2; linker 1-7 via X13) | > 1 µM | 0.1 to 0.794 µM | – | – | –
12 | CCCCCC(=O)N[C@H]1CSCc2cc(CSCCNC(=O)CCC(=O)NCCCOCCOCCOCCCNC(=O)CCCCC3(N(C)CC(=O)O)CN(CC(=O)O)CCN(CC(=O)O)C3)cc(c2)CSC[C@@H](C(=O)O)NC(=O)[C@H](Cc2ccccc2)NC(=O)[C@H](CCC(N)=O)NC(=O)[C@H]([C@@H](C)O)NC(=O)[C@@H]2CCCN2C(=O)[C@@H]2CCCN2C1=O [3BP-4384, Hex-[Cys(tMeBn(DATA-Ttds-AET))-Pro-Pro-Thr-Gln-Phe-Cys]-OH] | 0.01 to 0.0794 µM | – | 0.01 to 0.0794 µM | B (category B for pIC50 values between 7.1 and 8.0) | 0.01 to 0.0794 µM
13 | CCCCCC(=O)N[C@H]1CSCc2cc(CSCCNC(=O)CCP(=O)(O)CN3CCN(CP(=O)(O)CO)CCN(CP(=O)(O)CO)CC3)cc(c2)CSCC(C(=O)O)NC(=O)[C@H](Cc2ccccc2)NC(=O)[C@H](CCC(=O)O)NC(=O)[C@H]([C@@H](C)O)NC(=O)[C@@H]2CCCN2C(=O)[C@@H]2CCCN2C1=O (stereo partly drawn) [3BP-4818, Hex-[Cys(tMeBn(NOPO-AET))-Pro-Pro-Thr-Glu-Phe-Cys]-OH] (Hexanoyl-CPPTEF[ξC]-OH; linker 1-7 via X7) | 0.01 to 0.0794 µM | – | – | – | 0.01 to 0.0794 µM
14 | CCCCCC(=O)N[C@H]1CSCc2cc(CSCCNC(=O)COc3ccc4nc3CN(CC(=O)O)CCN(CC(=O)O)CCN(CC(=O)O)C4)cc(c2)CSCC(C(=O)O)NC(=O)[C@H](Cc2ccccc2)NC(=O)[C@H](CCC(N)=O)NC(=O)[C@H]([C@@H](C)O)NC(=O)[C@@H]2CCCN2C(=O)[C@@H]2CCCN2C1=O (stereo partly drawn) [3BP-5273, Hex-[Cys(tMeBn(AcPCTA-AET))-Pro-Pro-Thr-Gln-Phe-Cys]-OH] | < 0.01 µM | – | – | – | < 0.01 µM

From US20230212549A1, “COMPOUNDS COMPRISING A […] LIGAND AND USE THEREOF” (priority 2021, published 2023)
